The values that follow come from ChEMBL document CHEMBL5055676, “Novel methyllycaconitine analogues selective for the α4β2 over α7 nicotinic acetylcholine receptors” (Bioorg Med Chem, 2021).

Active and inactive are the calls of the source. The calls are words filed in the database; no cut-off is given here.

In general, inhibition refers to the change of the read-out against control, counted positive when it falls. As usually defined, the IC50 is the point on the concentration scale where inhibition reaches its midpoint.

Experiment [1] concerns the target T1, Neuronal acetylcholine receptor; alpha4/beta2 (Homo sapiens, UniProt P17787+P43681). The experiment is described as follows: Inhibition of human (alpha4)3(beta2)2 nAChR expressed in Xenopus laevis oocytes assessed as inhibition of acetylcholine-induced current response at 10 uM pretreated for 30 secs followed by co-application with acetylcholine measured at holding potential of -60 mV by two-electrode voltage-clamp method. The settings on record: Oocyte, time 30.0 sec. The format is cell-based. A general note: Two-electrode voltage clamp is typically applied to oocytes expressing channels or transporters.

The target in experiment [2] is T1, Neuronal acetylcholine receptor; alpha4/beta2. The experiment is described as follows: Non-competitive antagonist activity at human (alpha4)3(beta2)2 nAChR expressed in Xenopus laevis oocytes decrease in acetylcholine-induced maximum current with non-significant change in Ach potency at IC50 pretreated for 30 secs followed by co-application with acetylcholine measured at holding potential of -60 mV by two-electrode voltage-clamp method. The format is cell-based. The note with it: Oocyte, time 30.0 sec.

Experiment [3] shares this target. As to the kind of experiment: Inhibition of human (alpha4)2(beta2)3 nAChR expressed in Xenopus laevis oocytes assessed as inhibition of acetylcholine-induced current response in presence of 3 uM acetylcholine by two-electrode voltage-clamp method. It is filed as cell-based. The settings on record: for logIC50: Oocyte.
For experiment [4] the target is unchanged. The experiment is described as follows: Inhibition of human (alpha4)2(beta2)3 nAChR expressed in Xenopus laevis oocytes assessed as inhibition of acetylcholine-induced current response at 10 uM pretreated for 30 secs followed by co-application with acetylcholine measured at holding potential of -60 mV by two-electrode voltage-clamp method. It is filed as cell-based. The settings on record: Oocyte, time 30.0 sec.

The target is the same in experiment [5]. As to the kind of experiment: Inhibition of human (alpha4)3(beta2)2 nAChR expressed in Xenopus laevis oocytes assessed as inhibition of acetylcholine-induced current response in presence of 100 uM acetylcholine by two-electrode voltage-clamp method. The format is cell-based. The note with it: for logIC50: Oocyte.
Experiment [6] concerns the target Neuronal acetylcholine receptor; alpha4/beta2 (Rattus norvegicus, UniProt P09483+P12390). As to the kind of experiment: Inhibition of rat alpha4beta2 nAChR expressed in Xenopus laevis oocytes assessed as inhibition of acetylcholine-elicited current response measured at holding potential of -60 mV by two-electrode voltage-clamp method. The format is cell-based, Oocyte.

Experiment [7] concerns the target Neuronal acetylcholine receptor subunit alpha-7 (Rattus norvegicus, UniProt Q05941). The experiment is described as follows: Inhibition of rat alpha7 nAChR expressed in Xenopus laevis oocytes assessed as inhibition of acetylcholine-elicited current response measured at holding potential of -60 mV by two-electrode voltage-clamp method. The format is cell-based, Oocyte.

T1 sequence (P17787 whole entry): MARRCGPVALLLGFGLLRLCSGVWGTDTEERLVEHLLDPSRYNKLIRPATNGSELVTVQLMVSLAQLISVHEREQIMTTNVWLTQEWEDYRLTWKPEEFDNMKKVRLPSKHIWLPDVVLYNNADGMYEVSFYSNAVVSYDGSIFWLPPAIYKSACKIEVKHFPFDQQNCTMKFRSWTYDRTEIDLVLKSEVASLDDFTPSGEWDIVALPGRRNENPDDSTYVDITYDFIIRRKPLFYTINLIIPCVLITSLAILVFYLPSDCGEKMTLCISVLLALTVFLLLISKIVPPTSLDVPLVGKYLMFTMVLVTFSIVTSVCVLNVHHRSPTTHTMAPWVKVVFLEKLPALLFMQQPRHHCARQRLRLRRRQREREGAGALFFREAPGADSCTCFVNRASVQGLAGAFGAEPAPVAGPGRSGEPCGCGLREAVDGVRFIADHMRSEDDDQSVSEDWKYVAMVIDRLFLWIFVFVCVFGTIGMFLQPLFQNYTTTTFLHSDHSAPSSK
T1 sequence (P43681 whole entry): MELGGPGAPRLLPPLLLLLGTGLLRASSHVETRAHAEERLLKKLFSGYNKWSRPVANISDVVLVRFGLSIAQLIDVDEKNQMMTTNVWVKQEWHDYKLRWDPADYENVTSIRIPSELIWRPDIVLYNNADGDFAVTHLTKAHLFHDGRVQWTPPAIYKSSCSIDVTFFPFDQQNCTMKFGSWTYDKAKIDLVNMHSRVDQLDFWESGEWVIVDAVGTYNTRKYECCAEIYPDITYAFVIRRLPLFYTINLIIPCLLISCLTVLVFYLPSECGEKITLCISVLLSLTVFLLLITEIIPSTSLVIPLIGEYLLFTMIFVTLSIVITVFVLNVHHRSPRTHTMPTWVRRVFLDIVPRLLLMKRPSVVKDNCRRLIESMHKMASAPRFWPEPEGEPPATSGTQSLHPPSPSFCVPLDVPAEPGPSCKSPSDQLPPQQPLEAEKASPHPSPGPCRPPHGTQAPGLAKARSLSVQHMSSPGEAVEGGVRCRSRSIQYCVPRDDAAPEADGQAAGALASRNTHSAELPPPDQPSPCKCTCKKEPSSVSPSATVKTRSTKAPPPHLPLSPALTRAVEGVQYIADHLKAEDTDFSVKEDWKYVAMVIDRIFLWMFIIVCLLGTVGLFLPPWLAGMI
Chain of Neuronal acetylcholine receptor subunit alpha-7 (Q05941 whole entry): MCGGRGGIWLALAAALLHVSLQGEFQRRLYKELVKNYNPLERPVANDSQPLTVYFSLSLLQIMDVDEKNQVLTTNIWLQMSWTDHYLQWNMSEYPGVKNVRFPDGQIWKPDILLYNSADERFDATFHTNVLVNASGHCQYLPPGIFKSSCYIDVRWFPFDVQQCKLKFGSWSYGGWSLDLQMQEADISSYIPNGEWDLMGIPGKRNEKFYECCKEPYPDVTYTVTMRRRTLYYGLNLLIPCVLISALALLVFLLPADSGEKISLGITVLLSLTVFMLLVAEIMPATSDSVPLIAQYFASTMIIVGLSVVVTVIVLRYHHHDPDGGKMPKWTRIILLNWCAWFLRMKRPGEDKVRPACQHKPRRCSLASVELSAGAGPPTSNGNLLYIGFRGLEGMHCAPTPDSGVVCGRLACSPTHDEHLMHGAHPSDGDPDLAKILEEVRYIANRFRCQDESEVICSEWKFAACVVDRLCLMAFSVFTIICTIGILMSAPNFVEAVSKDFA
Chain of Neuronal acetylcholine receptor; alpha4/beta2 (Rattus norvegicus, UniProt P09483+P12390) (P09483 whole entry): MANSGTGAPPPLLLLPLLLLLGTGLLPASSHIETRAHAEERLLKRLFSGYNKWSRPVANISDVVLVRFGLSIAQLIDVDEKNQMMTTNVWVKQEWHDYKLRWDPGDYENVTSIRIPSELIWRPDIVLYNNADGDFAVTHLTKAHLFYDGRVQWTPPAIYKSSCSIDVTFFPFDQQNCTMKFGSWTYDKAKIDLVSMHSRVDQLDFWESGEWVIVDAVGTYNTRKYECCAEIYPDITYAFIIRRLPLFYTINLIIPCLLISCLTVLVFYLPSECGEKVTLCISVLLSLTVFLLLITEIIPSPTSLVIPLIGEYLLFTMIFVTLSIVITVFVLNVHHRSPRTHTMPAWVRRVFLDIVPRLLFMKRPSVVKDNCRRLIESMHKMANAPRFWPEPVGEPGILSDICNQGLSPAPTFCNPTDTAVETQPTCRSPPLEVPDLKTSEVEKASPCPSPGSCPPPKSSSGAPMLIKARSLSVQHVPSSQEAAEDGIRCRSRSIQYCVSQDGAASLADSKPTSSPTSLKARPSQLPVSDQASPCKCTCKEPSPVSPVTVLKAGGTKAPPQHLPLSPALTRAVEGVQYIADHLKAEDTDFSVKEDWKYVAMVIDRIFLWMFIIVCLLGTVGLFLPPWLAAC
Chain of Neuronal acetylcholine receptor; alpha4/beta2 (Rattus norvegicus, UniProt P09483+P12390) (P12390 whole entry): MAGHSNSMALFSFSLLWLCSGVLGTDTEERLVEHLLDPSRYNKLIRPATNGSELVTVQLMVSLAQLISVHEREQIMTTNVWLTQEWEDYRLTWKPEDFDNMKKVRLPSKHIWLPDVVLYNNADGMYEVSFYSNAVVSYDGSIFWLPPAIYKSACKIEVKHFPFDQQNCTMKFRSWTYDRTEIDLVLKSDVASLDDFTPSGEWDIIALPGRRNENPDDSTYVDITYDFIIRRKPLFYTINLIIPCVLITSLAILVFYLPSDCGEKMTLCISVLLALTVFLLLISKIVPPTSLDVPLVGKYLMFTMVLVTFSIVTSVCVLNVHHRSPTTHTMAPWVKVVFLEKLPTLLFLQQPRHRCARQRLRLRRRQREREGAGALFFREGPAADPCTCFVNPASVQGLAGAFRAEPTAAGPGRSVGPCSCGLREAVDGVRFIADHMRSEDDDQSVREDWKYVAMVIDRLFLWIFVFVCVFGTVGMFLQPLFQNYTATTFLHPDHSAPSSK

For the compound `C=C1[C@@H]2CCC[C@@]1(COC(=O)c1ccccc1-c1cccc(NC(C)=O)c1)CN(CC)C2`, the inhibition entry in experiment [1] is “Active”.

Consider `C=C1[C@@H]2CCC[C@@]1(COC(=O)c1ccccc1-c1cccnc1)CN(CC)C2`, for which the inhibition result in experiment [1] is “Active”.

For the compound `C=C1[C@@H]2CCC[C@@]1(COC(=O)c1ccccc1-c1ccc(NC(C)=O)cc1)CN(CC)C2`, in experiment [1], the inhibition entry was “Active”.

Turning to `C=C1[C@@H]2CCC[C@@]1(COC(=O)c1ccccc1-c1ccccc1)CN(CC)C2`, the inhibition result in experiment [1] is “Active”.

`CCN1C[C@]2(COC(=O)c3ccccc3N3C(=O)C[C@H](C)C3=O)CC[C@H](OC)[C@]34C1[C@@](O)([C@@H](OC)[C@H]23)[C@@]1(O)C[C@H](OC)[C@H]2C[C@@H]4[C@@H]1[C@H]2OC`: the inhibition entry in experiment [2] and in experiment [4] was “Active” in each case. Also, the inhibition in experiment [1] was determined as 95%. The logIC50 in experiment [3] was -0.8; in experiment [5] it was -1.1.

For `C=C1[C@@H]2CCC[C@@]1(COC(=O)c1ccccc1-c1ccnc(NC(C)=O)c1)CN(CC)C2`, the inhibition in experiment [1] came out at 60%. Also, the inhibition result in experiment [4] was “Active”.

Consider `C=C1[C@@H]2CCC[C@@]1(COC(=O)c1ccccc1-c1cncc(NC(C)=O)c1)CN(CC)C2`, for which the inhibition in experiment [1] came out at 60%. Further, the inhibition result in experiment [4] was “Active”.

With `C=C1[C@@H]2CCC[C@@]1(COC(=O)c1ccccc1-c1cccc(NC(C)=O)n1)CN(CC)C2`, the inhibition result in experiment [2] and in experiment [4] was “Active” throughout. Further, the inhibition in experiment [1] was determined as 80%. For the same compound, the IC50 is 27.3 µM in experiment [3] and 4.9 µM in experiment [5]. For the same compound, the logIC50 was 1.4 in experiment [3] and 0.7 in experiment [5].

In the case of `C=C1[C@@H]2CCC[C@@]1(COC(=O)c1ccccc1N1C(=O)CC(C)C1=O)CN(CC)C2` (stereo partly specified), the 50% inhibitory concentration (IC50) in experiment [6] came out at 4.66 µM; in experiment [7] it was 20.7 µM.

On to `C=C1[C@@H]2CCC[C@@]1(COC(=O)c1ccccc1-c1ccccn1)CN(CC)C2`, for which the inhibition in experiment [1] came out at 50%. Besides, the inhibition result in experiment [4] was “Active”.

`C=C1[C@@H]2CCC[C@@]1(COC(=O)c1ccccc1-c1ccncc1)CN(CC)C2`: the inhibition result in experiment [1] is “Active”.

With `C=C1[C@@H]2CCC[C@@]1(COC(=O)c1ccccc1-c1ccc(NC(C)=O)cn1)CN(CC)C2`, the inhibition entry in experiment [2] and in experiment [4] was “Active” in each case. For the same compound, the inhibition in experiment [1] came out at 60%. For the same compound, the IC50 in experiment [3] amounted to 29.1 µM; in experiment [5], 4.1 µM. Besides, the logIC50 in experiment [3] was 1.5; in experiment [5], 0.6.

Consider `C=C1[C@@H]2CCC[C@@]1(COC(=O)c1ccccc1-c1cc(NC(C)=O)ccn1)CN(CC)C2`, for which the inhibition entry in experiment [2] and in experiment [4] was “Active” in each case. In addition, the inhibition in experiment [1] was 80%. The IC50 in experiment [3] worked out at 15 µM; in experiment [5], 3.9 µM. In addition, the logIC50 came out at 1.2 in experiment [3] and 0.6 in experiment [5].

With `C=C1[C@@H]2CCC[C@@]1(COC(=O)c1ccccc1-c1ccc(NC(C)=O)nc1)CN(CC)C2`, the inhibition in experiment [1] stood at 60%. The inhibition entry in experiment [4] was “Active”.
